In general, pIC50 refers to the IC50 on a negative log10 scale, so that one unit is a factor of ten.

Data on nine compounds can be found in patent publication US20230278995A1, “1,3,4-OXADIAZOLE DERIVATIVE COMPOUNDS AS HISTONE DEACETYLASE 6 INHIBITOR, AND THE PHARMACEUTICAL COMPOSITION COMPRISING THE SAME” (CHONG KUN DANG PHARMACEUTICAL CORP., priority 2020, published 2023).

Molecules are shown by their SMILES. pIC50: −log10 of the molar value.

The target in test [1] is T1, human recombinant HDAC6 (Homo sapiens, UniProt Q9UBN7).
T1 construct: purchased Calbiochem Inc. 382180
T1 sequence (Q9UBN7 1-1215): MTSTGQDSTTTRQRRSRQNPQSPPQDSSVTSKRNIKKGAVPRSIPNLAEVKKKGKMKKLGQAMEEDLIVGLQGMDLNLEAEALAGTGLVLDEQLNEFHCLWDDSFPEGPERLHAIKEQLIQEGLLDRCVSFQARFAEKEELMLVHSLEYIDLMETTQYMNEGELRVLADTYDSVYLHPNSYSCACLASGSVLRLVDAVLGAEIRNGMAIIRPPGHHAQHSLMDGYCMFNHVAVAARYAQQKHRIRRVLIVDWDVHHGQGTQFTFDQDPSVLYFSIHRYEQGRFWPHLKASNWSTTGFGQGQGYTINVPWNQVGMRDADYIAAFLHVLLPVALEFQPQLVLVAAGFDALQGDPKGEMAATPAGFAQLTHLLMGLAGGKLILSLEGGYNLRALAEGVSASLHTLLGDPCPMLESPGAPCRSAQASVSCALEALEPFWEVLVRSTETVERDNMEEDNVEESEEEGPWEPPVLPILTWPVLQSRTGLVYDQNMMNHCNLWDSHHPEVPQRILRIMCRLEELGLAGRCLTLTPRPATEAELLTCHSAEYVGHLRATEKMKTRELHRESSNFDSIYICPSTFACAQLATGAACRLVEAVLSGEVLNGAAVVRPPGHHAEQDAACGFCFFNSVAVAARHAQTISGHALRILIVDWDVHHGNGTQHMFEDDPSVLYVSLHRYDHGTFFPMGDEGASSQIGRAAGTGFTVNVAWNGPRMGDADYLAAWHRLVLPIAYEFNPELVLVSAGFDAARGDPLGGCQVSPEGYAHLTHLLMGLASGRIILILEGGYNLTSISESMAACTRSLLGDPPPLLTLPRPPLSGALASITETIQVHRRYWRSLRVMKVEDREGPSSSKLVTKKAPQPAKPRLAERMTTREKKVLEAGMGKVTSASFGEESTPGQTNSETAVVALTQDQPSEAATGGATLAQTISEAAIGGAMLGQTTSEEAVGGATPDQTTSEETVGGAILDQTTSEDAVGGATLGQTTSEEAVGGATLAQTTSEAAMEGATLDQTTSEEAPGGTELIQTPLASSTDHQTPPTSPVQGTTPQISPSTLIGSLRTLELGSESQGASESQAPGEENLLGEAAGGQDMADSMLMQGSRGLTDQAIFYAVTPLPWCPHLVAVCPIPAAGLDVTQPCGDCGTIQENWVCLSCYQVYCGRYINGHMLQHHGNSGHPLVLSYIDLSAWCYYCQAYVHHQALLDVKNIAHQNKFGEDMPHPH
As to the kind of experiment: HDAC enzyme activity inhibition assay (HDAC Fluorimetric Drug Discovery Kit), HDAC6. The following applies: for HDAC6 selectivity (fold): HDAC1 vs HDAC6; for pIC50: human recombinant HDAC6, same protocol as HDAC1. Type of test: biochemical. Summed up: (§1)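 Recombinant human HDAC1 or HDAC6 (0.3 μg) reacted with 10 μM Fluor de Lys-SIRT1 substrate at 30 °C for 60 min. Developer added for 30 min, then fluorescence read at Ex 360/Em 460.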

The target in test [2] is T2, human recombinant HDAC1 (Homo sapiens, UniProt Q13547).
T2 construct: purchased Enzo Life Sciences, Inc. BML-SE456
T2 sequence (Q13547 whole entry): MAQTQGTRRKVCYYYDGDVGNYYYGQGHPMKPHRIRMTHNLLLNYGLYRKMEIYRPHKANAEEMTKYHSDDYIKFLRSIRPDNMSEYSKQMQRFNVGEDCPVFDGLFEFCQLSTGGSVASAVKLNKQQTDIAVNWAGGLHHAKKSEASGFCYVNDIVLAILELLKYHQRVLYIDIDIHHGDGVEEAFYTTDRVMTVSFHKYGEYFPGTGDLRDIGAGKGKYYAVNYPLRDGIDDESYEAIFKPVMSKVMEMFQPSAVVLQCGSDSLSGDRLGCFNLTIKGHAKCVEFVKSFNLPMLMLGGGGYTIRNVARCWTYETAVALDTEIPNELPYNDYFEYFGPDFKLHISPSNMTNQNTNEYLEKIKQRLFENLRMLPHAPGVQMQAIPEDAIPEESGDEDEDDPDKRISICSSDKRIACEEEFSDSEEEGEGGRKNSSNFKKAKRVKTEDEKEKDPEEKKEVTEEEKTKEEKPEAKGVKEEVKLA
Briefly: HDAC enzyme activity inhibition assay (HDAC Fluorimetric Drug Discovery Kit), HDAC1. Type of test: biochemical. The note with it: human recombinant HDAC1, Fluor de Lys-SIRT1 substrate, 30° C. 60 minutes. The gist of the method:
as §1

Regarding `CC(C)N1CCC(N2CC(F)(C(=O)N(Cc3ccc(-c4nnc(C(F)F)o4)cn3)c3ccccc3)C2)CC1` [Compound 3115, N-((5-(5-(difluoromethyl)-1,3,4-oxadiazol-2-yl)pyridin-2-yl)methyl)-3-fluoro-1-(1-isopropylpiperidin-4-yl)-N-phenylazetidine-3-carboxamide], in test [1], the “HDAC6 selectivity (fold)” value is given as 2,040 fold and the pIC50 was 7.61. In addition, the pIC50 in test [2] was below 4.30.

In the case of `CC(=O)N1CC(F)(C(=O)N(Cc2ccc(-c3nnc(C(F)F)o3)cn2)c2ccccc2)C1` [Compound 3152, 1-acetyl-N-((5-(5-(difluoromethyl)-1,3,4-oxadiazol-2-yl)pyridin-2-yl)methyl)-3-fluoro-N-phenylazetidine-3-carboxamide], in test [1], the “HDAC6 selectivity (fold)” value was 1,377 fold and the pIC50 was 7.44. Further, the pIC50 in test [2] was below 4.30.

For `CCC(=O)N1CC(F)(C(=O)N(Cc2ccc(-c3nnc(C(F)F)o3)cn2)c2ccccc2)C1` [Compound 3153, N-((5-(5-(difluoromethyl)-1,3,4-oxadiazol-2-yl)pyridin-2-yl)methyl)-3-fluoro-N-phenyl-1-propionylazetidine-3-carboxamide], in test [1], the “HDAC6 selectivity (fold)” value is 1,347 fold and the pIC50 is 7.43. Also, the pIC50 in test [2] is below 4.30.

With `CCCC(=O)N1CC(F)(C(=O)N(Cc2ccc(-c3nnc(C(F)F)o3)cn2)c2ccccc2)C1` [Compound 3154, 1-butyryl-N-((5-(5-(difluoromethyl)-1,3,4-oxadiazol-2-yl)pyridin-2-yl)methyl)-3-fluoro-N-phenylazetidine-3-carboxamide], in test [1], the “HDAC6 selectivity (fold)” value was 1,506 fold and the pIC50 was 7.48. For the same compound, the pIC50 in test [2] is below 4.30.

As for `CC(C)CC(=O)N1CC(F)(C(=O)N(Cc2ccc(-c3nnc(C(F)F)o3)cn2)c2ccccc2)C1` [Compound 3155, N-((5-(5-(difluoromethyl)-1,3,4-oxadiazol-2-yl)pyridin-2-yl)methyl)-3-fluoro-1-(3-methylbutanoyl)-N-phenylazetidine-3-carboxamide], in test [1], the “HDAC6 selectivity (fold)” value is 1,326 fold and the pIC50 was 7.42. The pIC50 in test [2] is below 4.30.

For `O=C(N(Cc1ccc(-c2nnc(C(F)F)o2)cn1)c1ccccc1)C1(F)CN(CC2CCCCC2)C1` [Compound 3156, 1-(cyclohexylmethyl)-N-((5-(5-(difluoromethyl)-1,3,4-oxadiazol-2-yl)pyridin-2-yl)methyl)-3-fluoro-N-phenylazetidine-3-carboxamide], in test [1], the “HDAC6 selectivity (fold)” value turned out to be 649 fold and the negative-log IC50 (pIC50) was 7.11. For the same compound, the pIC50 in test [2] is below 4.30.

Take `COCCC(=O)N1CC(F)(C(=O)N(Cc2ccc(-c3nnc(C(F)F)o3)cn2)c2ccccc2)C1` [Compound 3157, N-((5-(5-(difluoromethyl)-1,3,4-oxadiazol-2-yl)pyridin-2-yl)methyl)-3-fluoro-1-(3-methoxypropanoyl)-N-phenylazetidine-3-carboxamide]: in test [1], the “HDAC6 selectivity (fold)” value is 941 fold and the pIC50 was 7.27. The pIC50 in test [2] was below 4.30.

Consider `O=C(C1CC1)N1CC(F)(C(=O)N(Cc2ccc(-c3nnc(C(F)F)o3)cn2)c2ccccc2)C1` [Compound 3158, 1-(cyclopropanecarbonyl)-N-((5-(5-(difluoromethyl)-1,3,4-oxadiazol-2-yl)pyridin-2-yl)methyl)-3-fluoro-N-phenylazetidine-3-carboxamide], for which, in test [1], the “HDAC6 selectivity (fold)” value was 1,400 fold and the pIC50 is 7.45. Moreover, the pIC50 in test [2] is below 4.30.

As for `O=C(C1CCC1)N1CC(F)(C(=O)N(Cc2ccc(-c3nnc(C(F)F)o3)cn2)c2ccccc2)C1` [Compound 3159, 1-(cyclobutanecarbonyl)-N-((5-(5-(difluoromethyl)-1,3,4-oxadiazol-2-yl)pyridin-2-yl)methyl)-3-fluoro-N-phenylazetidine-3-carboxamide], in test [1], the “HDAC6 selectivity (fold)” value is on record as 1,650 fold and the pIC50 was 7.52. For the same compound, the pIC50 in test [2] was below 4.30.
